Measurements: patent publication US20240209388A1, “EXPRESSION VECTOR OF GLYPHOSATE-RESISTANT GENES GR79 AND GAT, HIGH GLYPHOSATE-RESISTANT CORN, AND DETECTION METHOD THEREFOR” (BIOTECHNOLOGY RESEARCH INSTITUTE, CHINESE ACADEMY OF …, priority 2021, published 2024)
Entries after “also recorded” stand apart in the source; their conditions may differ. Read-outs that look alike come from different tables or passages of the source.

Assays:
[1] = system: non-transgenic control corn; format: in vivo; details: high dose on the pesticide registration tag, four to six leaves, surveyed 1, 2, 4 weeks after application
From the text: (§1) transgenic corn to non-target herbicide 3 types of herbicides were set in this test, i.e., mesotrione· propisochlor atrazine SC (3.5% mesotrione, 15% propisochlor, and 15% atrazine) commonly used in corn field, glufosinate-ammonium (20% active ingredient) sensitive to corn, and haloxyfop-R-methyl (10.8% active ingredient), respectively. 4 treatments were set: (1) free of spraying herbicide; (2) spraying mesotrione· propisochlor atrazine SC; (3) spraying glufosinate-ammonium; and (4) spraying haloxyfop-R-methyl. The spraying dose is a high dose on the pesticide registration tag. Stems and leaves were sprayed when corn grew to four to six leaves. Seedling rate and symptom of pesticide damage were surveyed 1, 2, and 4 weeks later after application, respectively.

[2] = system: bivalent GAT and GR79 transgenic herbicide-resistant corn; format: in vivo; details: high dose on the pesticide registration tag, four to six leaves, surveyed 1, 2, 4 weeks after application
From the text: as §1

transgenic cotton = details: T1 generation, solution diluted to 1/200 (0.205 g/100 ml), 450 L/hectare; cited from earlier work
[3] = system: bivalent GAT and GR79 transgenic corn; assay: Screening of high glyphosate-resistant events of bivalent GAT and GR79 transgenic corn; format: in vivo, Zea mays; details: for transformation events free of symptom of pesticide damage: 4 weeks after application
Procedure: 2 times the medium dose of glyphosate (active ingredient: 1800 g/hectare) was continuously applied, and survey was conducted 4 weeks later after application, 63 transformation events were free of symptom of pesticide damage. The T2 generation of materials of the screened 63 transformation events were sown and sprayed with glyphosate at the four to five-leaf stage in a spraying amount of 1-fold, 2 times, and 4 times the medium dose (active ingredient: 900 g/hectare) on the pesticide registration tag. The rate of survival and symptom of pesticide damage of each transformation event were surveyed and recorded 4 weeks later after application. 47 transformation events were free of symptom of pesticide damage after sprayed with 4 times the medium dose of glyphosate and thus, were high glyphosate-resistant materials, accounting for 61.84% of the 76 positive transgenic materials. The screening concentration continued to be increased; when it was up to 8 times (active ingredient: 7200 g/hectare) the medium dose, 6 transformation events were not affected.

transgenic maize = details: AM79 single-gene transgenic maize; cited from earlier work
[4] = system: monovalent GAT transgenic corn; assay: Screening of high glyphosate-resistant events of monovalent GAT transgenic corn; format: in vivo, Zea mays
From the text: To determine the effect of the combined use of double genes on high glyphosate tolerance, the transgenic corn transformed with the single gene GAT was subjected to glyphosate tolerance test according to the same screening process, 8 transformation events which could be resistant to 4 times glyphosate were obtained finally, accounting for 21.05% of the 38 positive transgenic materials. By comparison of the two, the bivalent GAT and GR79 transgenic glyphosate-resistant corn was easier to obtain high glyphosate-resistant materials.

transgenic corn GG2 = assay: Field glyphosate tolerance of the transgenic corn event GG2; format: in vivo, Zea mays; details: for plant height 1 week BC4 / plant height 1 week BC5: 1 week after application; for plant height 2 weeks BC4 / plant height 2 weeks BC5: 2 weeks after application; for plant height 4 weeks BC4 / plant height 4 weeks BC5: 4 weeks after application
Procedure: Field herbicide tolerance of transgenic corn was tested in accordance with the Test for Environmental Safety of Transgenic Plant and its Products Part 1 of Herbicide-Resistant Corn: herbicide Tolerance (No. 953 bulletin-11.1-2007 of the Ministry of Agriculture and Rural Affairs).
The test material was the transgenic corn GG2, and the corresponding non-transgenic corn. The herbicide was glyphosate. […] An isolation belt (a width of 1.0 m) was set among the blocks. Treatments include: transgenic corn not sprayed with a herbicide, transgenic corn sprayed with a target herbicide (glyphosate), non-transgenic corn not sprayed with a herbicide, and non-transgenic corn sprayed with a target herbicide (glyphosate). The application amount of the herbicide was 1-fold, 2 times, and 4 times the medium dose (active ingredient: 900 g/hectare) on the pesticide registration tag, respectively. The herbicide was applied at the four to five-leaf stage of corn. The rate of survival, plant height, and symptom of pesticide damage were surveyed and recorded 1, 2, and 4 weeks later after application, respectively. The symptom of pesticide damage was graded according to GB/T 19780.42. Glyphosate in the transgenic corn GG2, and in its corresponding transgenic control, and non-transgenic control was identified.

[5] = 8 times the medium dose (active ingredient: 7200 g/hectare)
[6] = GG2 BC4, 1-fold the medium dose
[7] = GG2 BC4, 2 times the medium dose
[8] = GG2 BC4, 4 times the medium dose
[9] = GG2 BC5, 1-fold the medium dose
[10] = GG2 BC5, 2 times the medium dose
[11] = GG2 BC5, 4 times the medium dose

CP(=O)(O)CCC(N)C(=O)O (centres unmarked) [glufosinate-ammonium]
seedling rate and symptom of pesticide damage [1]: died
seedling rate and symptom of pesticide damage [2]: died
seedling rate and symptom of pesticide damage ([2]; listed as Glufosinate-ammonium): sensitive

CC(C)N.O=C(O)CNCP(=O)(O)O [glyphosate isopropylamine]
survival rate (transgenic cotton): more than 84%

O=C(O)CNCP(=O)(O)O [glyphosate]
high glyphosate-resistant materials as share of the 76 positive transgenic materials ([3]; 4 times the medium dose): 61.84%
transformation events not affected [3, 5]: 6
harm by glyphosate during multi-generation screening ([3]; GG2 transformation event): not endangered by glyphosate
transformation events free of symptom of pesticide damage ([3]; T1, 2 times the medium dose (active ingredient: 1800 g/hectare)): 63
survival transformation events ([3]; T1 generation of 76 double-positive events, four-leaf stage, medium dose (active ingredient: 900 g/hectare)): 72
rate of zero symptom of pesticide damage ([3]; T1 generation of 76 double-positive events, medium dose (active ingredient: 900 g/hectare)): 94.7%
transformation events free of symptom of pesticide damage ([3]; T2 of 63 events, 4 times the medium dose): 47
tolerated dose (active ingredient) (transgenic maize): 3600 g/hectare
resistant events as share of the 38 positive transgenic materials ([4]; 4 times glyphosate): 21.05%
plant survival [4, 5]: no survival plant
transformation events resistant to 4 times glyphosate ([4]; of 38 positive single-gene GAT materials, 4 times the medium dose): 8
leaf symptoms of pesticide damage ([4]; partial high-resistant GAT events, a few days after 4 times the medium dose): mild symptoms of herbicide damage; also recorded: mild symptoms of pesticide damage
plant height versus transgenic corn not sprayed (transgenic corn GG2; GG2, 1-fold, 2 and 4 times the medium dose): no significant difference
symptom of damage (transgenic corn GG2; GG2, 1-fold, 2 and 4 times the medium dose, each stage, two consecutive generations): free of symptom of damage
plant height 1 week BC4 (transgenic corn GG2; GG2 BC4, 1-fold the medium dose (900 g active ingredient/hectare)): 58.52 cm
plant height 2 weeks BC4 (transgenic corn GG2; [6]): 85.59 cm
plant height 4 weeks BC4 (transgenic corn GG2; [6]): 158.39 cm
plant height 1 week BC4 (transgenic corn GG2; [7]): 51.24 cm
plant height 2 weeks BC4 (transgenic corn GG2; [7]): 79.38 cm
plant height 4 weeks BC4 (transgenic corn GG2; [7]): 147.75 cm
plant height 1 week BC4 (transgenic corn GG2; [8]): 59.81 cm
plant height 2 weeks BC4 (transgenic corn GG2; [8]): 88.41 cm
plant height 4 weeks BC4 (transgenic corn GG2; [8]): 158.53 cm
plant height 1 week BC5 (transgenic corn GG2; [9]): 33.87 cm
plant height 2 weeks BC5 (transgenic corn GG2; [9]): 51.71 cm
plant height 4 weeks BC5 (transgenic corn GG2; [9]): 136.37 cm
plant height 1 week BC5 (transgenic corn GG2; [10]): 33.11 cm
plant height 2 weeks BC5 (transgenic corn GG2; [10]): 54.29 cm
plant height 4 weeks BC5 (transgenic corn GG2; [10]): 139.65 cm
plant height 1 week BC5 (transgenic corn GG2; [11]): 34.65 cm
plant height 2 weeks BC5 (transgenic corn GG2; [11]): 53.78 cm
plant height 4 weeks BC5 (transgenic corn GG2; [11]): 137.39 cm
glyphosate dose GG2 is resistant to (transgenic corn GG2; medium dose 900 g active ingredient/hectare): 4 times the medium dose

COC(=O)[C@@H](C)Oc1ccc(Oc2ncc(C(F)(F)F)cc2Cl)cc1 [haloxyfop-R-methyl]
seedling rate and symptom of pesticide damage [1]: died
